From ChEMBL document CHEMBL1201862, “PubChem BioAssay data set” (2004)
Active and inactive are the calls of the source.

Assays:
[1] = target: Serine/threonine-protein kinase PLK4 (Homo sapiens, UniProt O00444); type: functional;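 further: PLK4 measured as one member of a kinome-wide kinase profiling panel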
[2] = target: Vascular endothelial growth factor receptor 2 (Homo sapiens, UniProt P35968); type: functional
[3] = target: Platelet-derived growth factor receptor beta (Homo sapiens, UniProt P09619); type: functional;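 further: value comes from a kinome panel, with PDGFRB tested as one panel member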
[4] = target: Fibroblast growth factor receptor 1 (Homo sapiens, UniProt P11362); type: functional
[5] = target: Serine/threonine-protein kinase PLK3 (Homo sapiens, UniProt Q9H4B4); type: functional
[6] = target: Serine/threonine-protein kinase pim-1 (Homo sapiens, UniProt P11309); type: functional
[7] = target: RAC-gamma serine/threonine-protein kinase (Homo sapiens, UniProt Q9Y243); type: functional
[8] = target: Macrophage colony-stimulating factor 1 receptor (Homo sapiens, UniProt P07333); type: functional;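 further: value comes from the Navigating the Kinome screening panel, CSF1R member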
[9] = target: Serine/threonine-protein kinase pim-3 (Homo sapiens, UniProt Q86V86); type: functional;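 further: value obtained as one member of a broad kinase panel profiling effort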
[10] = target: Protein kinase C theta type (Homo sapiens, UniProt Q04759); experiment: Navigating the Kinome. Panel member name: PRKCQ; type: functional
[11] = target: Serine/threonine-protein kinase Chk1 (Homo sapiens, UniProt O14757); type: functional;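 further: measured as one member of a kinome-wide kinase profiling panel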
[12] = target: RAC-alpha serine/threonine-protein kinase (Homo sapiens, UniProt P31749); type: functional;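 further: AKT1 affinity measured as one member of a kinome-wide kinase profiling panel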
[13] = target: T1, Receptor-type tyrosine-protein kinase FLT3 (Homo sapiens, UniProt P36888); type: functional;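 further: FLT3 was tested as one member of a kinome-wide kinase panel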
T1 sequence (P36888 whole entry): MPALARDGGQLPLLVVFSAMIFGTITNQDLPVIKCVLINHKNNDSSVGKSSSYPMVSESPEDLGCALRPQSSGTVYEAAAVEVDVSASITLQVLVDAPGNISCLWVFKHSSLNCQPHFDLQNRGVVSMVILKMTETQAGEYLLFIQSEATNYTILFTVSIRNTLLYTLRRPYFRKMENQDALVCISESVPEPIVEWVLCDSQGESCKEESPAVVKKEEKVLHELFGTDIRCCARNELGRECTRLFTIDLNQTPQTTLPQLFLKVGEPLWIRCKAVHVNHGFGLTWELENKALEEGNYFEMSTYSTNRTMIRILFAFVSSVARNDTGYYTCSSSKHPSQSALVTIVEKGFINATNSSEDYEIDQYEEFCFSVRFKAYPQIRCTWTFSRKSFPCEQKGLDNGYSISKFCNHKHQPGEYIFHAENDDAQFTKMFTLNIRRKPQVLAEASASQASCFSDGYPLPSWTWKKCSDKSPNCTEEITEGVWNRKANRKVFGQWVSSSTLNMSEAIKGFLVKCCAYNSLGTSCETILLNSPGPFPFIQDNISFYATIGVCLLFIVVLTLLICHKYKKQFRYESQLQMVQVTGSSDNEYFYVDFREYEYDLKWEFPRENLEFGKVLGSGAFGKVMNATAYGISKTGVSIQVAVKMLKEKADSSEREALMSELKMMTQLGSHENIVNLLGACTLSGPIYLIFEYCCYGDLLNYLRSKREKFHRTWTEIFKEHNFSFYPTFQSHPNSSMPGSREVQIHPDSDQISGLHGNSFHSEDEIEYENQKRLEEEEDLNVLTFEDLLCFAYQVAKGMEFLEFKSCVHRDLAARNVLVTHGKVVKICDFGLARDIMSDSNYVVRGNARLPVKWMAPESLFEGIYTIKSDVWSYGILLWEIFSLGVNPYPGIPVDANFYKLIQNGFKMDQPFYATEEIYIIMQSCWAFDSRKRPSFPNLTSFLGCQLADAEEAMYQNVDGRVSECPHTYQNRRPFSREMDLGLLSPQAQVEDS

Aurora kinase B = Aurora kinase B (Homo sapiens, UniProt Q96GD4); type: functional
[14] = target: Serine/threonine-protein kinase PLK1 (Homo sapiens, UniProt P53350); type: functional;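 further: PLK1 measured as one member of a kinome-wide profiling panel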
[15] = target: cAMP-dependent protein kinase catalytic subunit alpha (Homo sapiens, UniProt P17612); type: functional
[16] = target: Dual specificity tyrosine-phosphorylation-regulated kinase 1A (Homo sapiens, UniProt Q13627); type: functional;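 further: measured against DYRK1A as one member of a broad kinome profiling panel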
[17] = target: Cyclin-dependent kinase 9 (Homo sapiens, UniProt P50750); type: functional;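 further: value from the CDK9 entry of a kinome-spanning kinase panel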
[18] = target: Cyclin-dependent kinase 19 (Homo sapiens, UniProt Q9BWU1); experiment: Navigating the Kinome. Panel member name: CDC2L6; type: functional
Insulin receptor = Insulin receptor (Homo sapiens, UniProt P06213); type: functional;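 further: insulin receptor kinase tested as one member of a kinome-wide kinase panel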
Aurora kinase A = Aurora kinase A (Homo sapiens, UniProt O14965); type: functional;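 further: value from the Navigating the Kinome kinase panel profiling, panel entry STK6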
[19] = cytotoxicity in HPDE-C7 cells, cell-based, fluorescence, HTS (AID 430); type: functional; details: Homo sapiens
[20] = insulin promoter down-regulators in MIN6 cells, imaging, high-content screening, mouse beta cells (AID 1628); type: functional
[21] = HepG2 cell cytotoxicity, dose response, cytotoxicity control for Shn3 inhibitor project, CellTiter-Glo, cherry-picked (AID 624134); type: functional, cell-based
[22] = target: C-C chemokine receptor type 6 (Homo sapiens, UniProt P51684); experiment: CCR6 receptor antagonists, dose response, cell-based, luminescent beta-arrestin readout (AID 504728); type: functional
[23] = target: Heat shock protein HSP 90-alpha (Homo sapiens, UniProt P07900); type: functional, organism-based
[24] = control 3'UTR Renilla luciferase suppression, dose response, counter-screen for Shn3 inhibitor project, cell-based, Clone20-Shn3RL, cherry-picked (AID 624133); type: functional
[25] = inhibitors of intracellular T. cruzi replication, confirmation, NIH3T3 host cells, beta-gal luminescence (AID 2044); type: functional, cell-based;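 further: intracellular parasites grown in NIH/3T3 mouse fibroblasts as host cells; luminescent beta-galactosidase reporter signal from transgenic T. cruzi replicating inside host cells; inhibitors lower the luminescence signal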
Beta-galactosidase = Beta-galactosidase (Escherichia coli, UniProt Q8VNN2); experiment: beta-galactosidase enzyme inhibitors and activators, dose response, artefact control for CCR6 antagonist project, biochemical, E. coli enzyme, set 3 (AID 504712); type: functional
[26] = nonselective inhibitors of cellular cAMP signaling, dose response, counter-screen for MC4R biased antagonist project, cell-based, TR-FRET cAMP detection (AID 602305); type: functional;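 further: U2OS cells stimulated with forskolin near its EC80 as the cAMP inducer; potency is for inhibition of forskolin-stimulated cAMP signaling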
[27] = Shn3 3'UTR reporter inhibitors, dose response, cell-based, Clone20 osteoblasts, firefly luciferase, cherry-picked (AID 624132); type: functional;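 further: firefly luciferase luminescence from reporter carrying the Shn3 3'UTR in osteoblasts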
[28] = target: Beta-2 adrenergic receptor (Homo sapiens, UniProt P07550); experiment: beta2AR agonists driving receptor internalization, dose response, cell-based, FAP fluorogen, flow cytometry, cherry pick 1 (AID 588763); type: functional
[29] = target: T2, Replicative DNA helicase DnaB (Mycobacterium tuberculosis, UniProt P9WMR3); experiment: DnaB intein splicing inhibitors, dose response, biochemical, cell-free fluorescence (AID 449749); type: functional
T2 sequence (P9WMR3 whole entry): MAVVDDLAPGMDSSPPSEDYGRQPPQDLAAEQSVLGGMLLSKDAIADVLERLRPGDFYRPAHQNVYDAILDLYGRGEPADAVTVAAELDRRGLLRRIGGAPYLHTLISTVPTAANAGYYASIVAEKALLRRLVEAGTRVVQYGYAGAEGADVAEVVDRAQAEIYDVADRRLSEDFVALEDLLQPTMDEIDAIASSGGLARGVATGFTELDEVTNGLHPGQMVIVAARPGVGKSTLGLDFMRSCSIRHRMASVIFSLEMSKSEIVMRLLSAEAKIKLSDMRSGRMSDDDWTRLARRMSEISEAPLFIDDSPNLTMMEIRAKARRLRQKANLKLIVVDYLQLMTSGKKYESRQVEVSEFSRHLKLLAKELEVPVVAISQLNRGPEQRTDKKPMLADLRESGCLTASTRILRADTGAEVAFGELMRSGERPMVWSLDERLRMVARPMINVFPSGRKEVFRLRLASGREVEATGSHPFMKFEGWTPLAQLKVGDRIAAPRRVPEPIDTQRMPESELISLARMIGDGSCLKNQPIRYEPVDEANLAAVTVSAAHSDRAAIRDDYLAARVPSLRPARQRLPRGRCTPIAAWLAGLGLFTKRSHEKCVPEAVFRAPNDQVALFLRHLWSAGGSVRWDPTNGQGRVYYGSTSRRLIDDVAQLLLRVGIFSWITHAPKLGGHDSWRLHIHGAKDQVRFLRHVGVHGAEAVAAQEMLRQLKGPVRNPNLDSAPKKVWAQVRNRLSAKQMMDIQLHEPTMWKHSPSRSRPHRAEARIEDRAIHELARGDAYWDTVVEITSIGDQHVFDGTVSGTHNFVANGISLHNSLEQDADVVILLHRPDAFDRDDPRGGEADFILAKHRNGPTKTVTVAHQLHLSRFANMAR

[30] = cytotoxicity in MIN6 insulinoma cells, dose response, cytotoxicity control, cell-based, mouse insulinoma (AID 2122); type: functional;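 further: confirmatory high-throughput counterscreen run to flag cytotoxic compounds; mouse MIN-6 beta cells carrying an insulin promoter eGFP reporter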
Melanocortin receptor 4 = Melanocortin receptor 4 (Homo sapiens, UniProt P32245); experiment: MC4R antagonist potency on cAMP, dose response, cell-based, TR-FRET, biased antagonists (AID 602298); type: functional;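 further: antagonist potency against agonist-stimulated cAMP production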
[31] = cytotoxicity in KRAS-transformed pancreatic duct cells, primary screen, cell-based, fluorescence, HTS (AID 431); type: functional; details: Homo sapiens;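 further: cell line used: HPDE-C7K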
Protein RecA = target: T3, Protein RecA (Mycobacterium tuberculosis, UniProt P9WHJ3); experiment: Fluorescence Cell-Free Homogeneous Dose Retest to Identify Inhibitors of RecA-Intein Splicing Activity. [Related pubchem assays (depositor defined):AID2097, AID2223, AID489010, AID492950]; type: functional
T3 sequence (P9WHJ3 whole entry): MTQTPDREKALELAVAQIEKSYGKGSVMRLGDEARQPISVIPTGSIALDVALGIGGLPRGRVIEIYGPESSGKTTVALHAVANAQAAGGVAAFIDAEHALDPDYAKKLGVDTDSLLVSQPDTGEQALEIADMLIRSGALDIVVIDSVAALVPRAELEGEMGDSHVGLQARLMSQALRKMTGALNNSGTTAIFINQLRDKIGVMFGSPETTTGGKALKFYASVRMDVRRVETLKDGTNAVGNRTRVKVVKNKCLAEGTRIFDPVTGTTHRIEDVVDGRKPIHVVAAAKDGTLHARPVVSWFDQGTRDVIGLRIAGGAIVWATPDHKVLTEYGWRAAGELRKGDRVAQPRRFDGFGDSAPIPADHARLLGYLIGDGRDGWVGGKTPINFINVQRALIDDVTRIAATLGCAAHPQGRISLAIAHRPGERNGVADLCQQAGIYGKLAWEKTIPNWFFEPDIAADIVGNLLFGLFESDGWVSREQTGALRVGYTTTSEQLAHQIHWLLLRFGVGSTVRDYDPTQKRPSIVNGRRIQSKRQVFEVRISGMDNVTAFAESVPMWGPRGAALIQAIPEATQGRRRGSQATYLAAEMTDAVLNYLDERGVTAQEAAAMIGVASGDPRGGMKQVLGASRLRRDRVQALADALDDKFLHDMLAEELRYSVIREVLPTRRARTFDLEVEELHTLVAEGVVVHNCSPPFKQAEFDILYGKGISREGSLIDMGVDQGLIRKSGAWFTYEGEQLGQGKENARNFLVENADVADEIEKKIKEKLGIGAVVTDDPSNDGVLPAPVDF

[32] = cytotoxicity toward NIH3T3 fibroblasts, dose response, counter-screen, cell-based, ATP luminescence, mouse fibroblasts (AID 2010); type: functional;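 further: cells exposed to compound for about 90 hours before reading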
[33] = target: Mitogen-activated protein kinase 12 (Homo sapiens, UniProt P53778); type: functional;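 further: measured as one member of a kinome-wide kinase profiling panel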
[34] = target: Mitogen-activated protein kinase 9 (Homo sapiens, UniProt P45984); type: functional;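 further: value from a kinome panel profiling assay, MAPK9 panel entry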
[35] = target: BDNF/NT-3 growth factors receptor (Homo sapiens, UniProt Q16620); type: functional;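 further: NTRK2 measured as one member of a broad kinome-wide kinase profiling panel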
Activin receptor type-1 = Activin receptor type-1 (Homo sapiens, UniProt Q04771); experiment: Navigating the Kinome. Panel member name: ACVR1; type: functional
[36] = target: Tyrosine-protein kinase Lck (Homo sapiens, UniProt P06239); type: functional;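 further: lck was assayed as one member of a kinase panel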
[37] = target: Leukocyte tyrosine kinase receptor (Homo sapiens, UniProt P29376); experiment: Navigating the Kinome. Panel member name: LTK; type: functional
[38] = target: Platelet-derived growth factor receptor alpha (Homo sapiens, UniProt P16234); experiment: Navigating the Kinome. Panel member name: PDGFRA; type: functional
[39] = target: Proto-oncogene tyrosine-protein kinase Src (Homo sapiens, UniProt P12931); type: functional;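 further: SRC entry within a kinome-wide kinase profiling panel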

Chain of Platelet-derived growth factor receptor beta (P09619 whole entry): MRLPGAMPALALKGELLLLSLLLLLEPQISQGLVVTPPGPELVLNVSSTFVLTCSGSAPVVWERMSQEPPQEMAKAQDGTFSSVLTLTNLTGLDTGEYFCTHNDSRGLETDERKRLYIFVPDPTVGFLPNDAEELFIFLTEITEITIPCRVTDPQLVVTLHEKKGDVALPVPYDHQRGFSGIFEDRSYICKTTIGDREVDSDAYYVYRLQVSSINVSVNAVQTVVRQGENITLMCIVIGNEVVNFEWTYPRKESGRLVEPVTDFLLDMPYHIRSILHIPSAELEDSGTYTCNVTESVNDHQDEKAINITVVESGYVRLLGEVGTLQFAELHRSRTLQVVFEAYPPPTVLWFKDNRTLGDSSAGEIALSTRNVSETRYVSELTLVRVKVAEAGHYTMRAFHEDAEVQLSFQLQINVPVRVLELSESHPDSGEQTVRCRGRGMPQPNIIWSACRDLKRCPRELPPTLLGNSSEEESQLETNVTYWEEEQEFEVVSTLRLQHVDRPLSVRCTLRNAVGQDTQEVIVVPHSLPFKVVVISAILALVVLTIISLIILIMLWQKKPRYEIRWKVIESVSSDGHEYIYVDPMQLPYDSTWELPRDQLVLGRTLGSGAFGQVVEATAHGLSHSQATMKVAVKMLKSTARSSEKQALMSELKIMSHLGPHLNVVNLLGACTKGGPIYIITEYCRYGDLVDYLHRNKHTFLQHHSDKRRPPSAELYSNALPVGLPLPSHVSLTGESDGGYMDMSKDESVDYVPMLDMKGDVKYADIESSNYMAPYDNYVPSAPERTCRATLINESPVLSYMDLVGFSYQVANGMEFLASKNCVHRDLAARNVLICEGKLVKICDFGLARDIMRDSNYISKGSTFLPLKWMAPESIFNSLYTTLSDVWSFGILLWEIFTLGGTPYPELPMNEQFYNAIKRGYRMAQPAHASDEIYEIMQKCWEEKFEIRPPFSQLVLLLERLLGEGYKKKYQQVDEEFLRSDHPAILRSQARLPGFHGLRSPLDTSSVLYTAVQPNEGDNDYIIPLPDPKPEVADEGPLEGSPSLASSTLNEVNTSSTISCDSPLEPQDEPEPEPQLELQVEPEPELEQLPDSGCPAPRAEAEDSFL
Chain of RAC-alpha serine/threonine-protein kinase (P31749 whole entry): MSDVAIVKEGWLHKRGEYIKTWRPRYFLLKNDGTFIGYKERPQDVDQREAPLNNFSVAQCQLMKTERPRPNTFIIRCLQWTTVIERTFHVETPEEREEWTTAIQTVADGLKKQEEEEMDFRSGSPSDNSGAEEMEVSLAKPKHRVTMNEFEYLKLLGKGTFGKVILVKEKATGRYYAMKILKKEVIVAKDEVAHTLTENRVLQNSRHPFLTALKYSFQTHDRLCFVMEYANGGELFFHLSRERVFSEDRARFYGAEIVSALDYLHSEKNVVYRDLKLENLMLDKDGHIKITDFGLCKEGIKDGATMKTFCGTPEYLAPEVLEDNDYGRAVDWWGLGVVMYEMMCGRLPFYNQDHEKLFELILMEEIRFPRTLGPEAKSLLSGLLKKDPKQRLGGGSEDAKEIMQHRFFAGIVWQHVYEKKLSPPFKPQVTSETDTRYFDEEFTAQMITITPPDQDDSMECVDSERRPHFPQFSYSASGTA
Chain of Beta-2 adrenergic receptor (P07550 whole entry): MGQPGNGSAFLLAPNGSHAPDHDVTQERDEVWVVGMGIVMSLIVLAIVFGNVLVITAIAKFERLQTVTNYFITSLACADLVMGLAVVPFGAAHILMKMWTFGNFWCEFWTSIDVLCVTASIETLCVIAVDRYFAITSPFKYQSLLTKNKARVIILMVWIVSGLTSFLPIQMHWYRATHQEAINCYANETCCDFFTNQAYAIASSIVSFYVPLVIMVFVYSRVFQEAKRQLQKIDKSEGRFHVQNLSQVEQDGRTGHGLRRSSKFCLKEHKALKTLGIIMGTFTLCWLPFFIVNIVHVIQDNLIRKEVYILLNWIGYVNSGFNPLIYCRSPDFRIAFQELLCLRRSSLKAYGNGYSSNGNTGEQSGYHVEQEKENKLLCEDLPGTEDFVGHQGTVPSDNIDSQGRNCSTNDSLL
Chain of Cyclin-dependent kinase 19 (Q9BWU1 whole entry): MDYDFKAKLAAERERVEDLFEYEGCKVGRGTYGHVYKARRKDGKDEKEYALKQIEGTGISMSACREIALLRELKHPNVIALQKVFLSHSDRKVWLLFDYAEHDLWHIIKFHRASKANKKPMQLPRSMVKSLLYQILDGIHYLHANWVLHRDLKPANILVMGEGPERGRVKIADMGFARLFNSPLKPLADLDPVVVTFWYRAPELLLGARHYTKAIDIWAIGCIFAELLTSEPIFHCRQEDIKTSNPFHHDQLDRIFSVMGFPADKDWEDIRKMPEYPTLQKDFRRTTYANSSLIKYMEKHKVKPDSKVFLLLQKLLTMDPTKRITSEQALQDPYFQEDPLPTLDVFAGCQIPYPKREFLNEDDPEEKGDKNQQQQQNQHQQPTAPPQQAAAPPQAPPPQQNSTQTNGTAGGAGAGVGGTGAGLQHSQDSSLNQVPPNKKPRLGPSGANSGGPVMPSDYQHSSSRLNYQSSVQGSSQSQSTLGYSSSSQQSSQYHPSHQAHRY
Chain of Cyclin-dependent kinase 9 (P50750 whole entry): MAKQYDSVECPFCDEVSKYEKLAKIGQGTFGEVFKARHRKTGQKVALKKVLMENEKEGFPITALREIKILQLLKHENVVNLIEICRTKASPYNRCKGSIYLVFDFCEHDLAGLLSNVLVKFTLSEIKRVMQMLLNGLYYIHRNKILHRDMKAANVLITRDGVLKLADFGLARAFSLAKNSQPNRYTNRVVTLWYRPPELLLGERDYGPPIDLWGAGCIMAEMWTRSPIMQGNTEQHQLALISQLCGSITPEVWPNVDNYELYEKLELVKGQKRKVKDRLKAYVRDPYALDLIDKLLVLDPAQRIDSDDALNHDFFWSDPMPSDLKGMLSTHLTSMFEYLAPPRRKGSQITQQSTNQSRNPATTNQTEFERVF
Chain of Tyrosine-protein kinase Lck (P06239 whole entry): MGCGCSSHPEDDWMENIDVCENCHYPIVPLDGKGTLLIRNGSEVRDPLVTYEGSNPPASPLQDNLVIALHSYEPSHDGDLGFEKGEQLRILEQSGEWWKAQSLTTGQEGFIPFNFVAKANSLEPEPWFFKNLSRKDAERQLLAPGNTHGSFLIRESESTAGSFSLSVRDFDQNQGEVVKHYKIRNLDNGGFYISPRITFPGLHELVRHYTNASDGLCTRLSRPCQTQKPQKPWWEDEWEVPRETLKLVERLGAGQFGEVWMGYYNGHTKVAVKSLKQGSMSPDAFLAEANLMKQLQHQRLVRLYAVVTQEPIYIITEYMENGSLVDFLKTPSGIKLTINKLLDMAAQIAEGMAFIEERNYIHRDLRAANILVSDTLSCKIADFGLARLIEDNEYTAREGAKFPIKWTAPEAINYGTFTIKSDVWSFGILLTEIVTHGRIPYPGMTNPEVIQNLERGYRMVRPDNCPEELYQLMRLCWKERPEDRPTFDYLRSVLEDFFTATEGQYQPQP
Chain of Leukocyte tyrosine kinase receptor (P29376 whole entry): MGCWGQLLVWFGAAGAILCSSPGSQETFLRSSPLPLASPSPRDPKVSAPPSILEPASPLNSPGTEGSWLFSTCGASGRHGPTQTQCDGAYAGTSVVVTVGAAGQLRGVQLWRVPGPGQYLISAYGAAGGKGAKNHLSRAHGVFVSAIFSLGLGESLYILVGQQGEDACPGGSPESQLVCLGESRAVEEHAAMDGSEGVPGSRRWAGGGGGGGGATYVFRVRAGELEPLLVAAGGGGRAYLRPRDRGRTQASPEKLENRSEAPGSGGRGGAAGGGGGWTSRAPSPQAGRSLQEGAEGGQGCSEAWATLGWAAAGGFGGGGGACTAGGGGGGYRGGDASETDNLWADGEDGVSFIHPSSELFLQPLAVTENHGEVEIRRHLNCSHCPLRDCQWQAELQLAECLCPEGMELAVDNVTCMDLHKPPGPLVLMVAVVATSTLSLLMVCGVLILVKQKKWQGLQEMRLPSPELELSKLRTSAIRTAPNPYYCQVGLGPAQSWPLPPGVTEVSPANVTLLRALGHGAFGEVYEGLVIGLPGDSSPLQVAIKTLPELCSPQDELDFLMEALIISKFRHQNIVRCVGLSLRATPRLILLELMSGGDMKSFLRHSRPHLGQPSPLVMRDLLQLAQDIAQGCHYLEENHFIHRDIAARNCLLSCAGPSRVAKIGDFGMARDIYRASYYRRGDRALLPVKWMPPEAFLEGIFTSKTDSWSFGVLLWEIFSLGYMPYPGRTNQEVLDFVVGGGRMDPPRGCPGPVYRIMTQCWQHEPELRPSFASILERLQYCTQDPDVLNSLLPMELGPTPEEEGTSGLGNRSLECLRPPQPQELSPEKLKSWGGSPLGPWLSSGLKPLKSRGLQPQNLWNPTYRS
Chain of Activin receptor type-1 (Q04771 whole entry): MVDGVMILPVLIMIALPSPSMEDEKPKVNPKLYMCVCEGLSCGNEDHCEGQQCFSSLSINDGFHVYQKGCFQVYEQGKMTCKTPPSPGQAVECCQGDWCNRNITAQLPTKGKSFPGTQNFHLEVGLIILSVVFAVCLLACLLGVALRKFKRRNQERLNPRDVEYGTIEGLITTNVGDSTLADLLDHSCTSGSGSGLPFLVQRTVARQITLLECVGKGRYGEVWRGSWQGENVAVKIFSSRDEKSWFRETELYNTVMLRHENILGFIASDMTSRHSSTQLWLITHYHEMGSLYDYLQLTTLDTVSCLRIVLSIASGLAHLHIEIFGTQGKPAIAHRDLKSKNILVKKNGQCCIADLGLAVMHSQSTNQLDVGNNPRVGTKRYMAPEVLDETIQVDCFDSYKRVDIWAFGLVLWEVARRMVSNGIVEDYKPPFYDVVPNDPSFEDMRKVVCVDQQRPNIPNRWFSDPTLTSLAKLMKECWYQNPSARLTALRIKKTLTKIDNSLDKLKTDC

O=C(Nc1ccccc1)Nc1ccccn1
Ki [1]: > 39.8 µM (inactive) | Ki [2]: > 100 µM (inactive) | Ki [3]: > 79.4 µM (inactive) | Ki [4]: > 50.1 µM (inactive) | Ki [5]: > 79.4 µM (inactive) | Ki [6]: 79.4 µM (active) | Ki [7]: > 100 µM (inactive) | Ki [8]: > 63.1 µM (inactive) | Ki [9]: 50.1 µM (active) | Ki [10]: > 100 µM (inactive) | Ki [11]: > 79.4 µM (inactive) | Ki [12]: > 79.4 µM (inactive) | Ki [13]: 3.16 µM (active) | Ki (Aurora kinase B): 79.4 µM (active) | Ki [14]: > 79.4 µM (inactive) | Ki [15]: > 50.1 µM (inactive) | Ki [16]: > 79.4 µM (inactive) | Ki [17]: > 63.1 µM (inactive) | Ki [18]: > 100 µM (inactive) | Ki (Insulin receptor): > 50.1 µM (inactive) | Ki (Aurora kinase A): > 63.1 µM (inactive)

CC(C)(C)c1cc(C(c2cccnc2)N2CCN(CCO)CC2)cc(C(C)(C)C)c1O (stereo not drawn)
EC50 [19]: 3.77 µM (active) | IC50 [20]: 4.68 µM (active) | AC50 [21]: 25.2 µM (active) | IC50 [22]: 35.9 µM (inactive) | AC50 [23]: 24 µM (active) | AC50 [24]: 7.04 µM (active) | EC50 [25]: 0.488 µM (active) | IC50 (Beta-galactosidase): > 66.6 µM (inactive) | IC50 [26]: > 64.6 µM (inactive) | AC50 [27]: 1.7 µM (active) | EC50 [28]: 7.35 µM (inactive) | AC50 [29]: 20 µM (active) | IC50 [30]: 3.96 µM (active) | IC50 (Melanocortin receptor 4): 25.1 µM (inactive) | EC50 [31]: 3.45 µM (active) | EC50 (Protein RecA): 17.3 µM (active) | EC50 [32]: 4.59 µM (active)

CN(C)CCCN(C)C(=O)C1Cc2[nH]cnc2C2(CCCCC2)N1 (stereo not drawn)
Ki [33]: 3.16 µM (active) | Ki [34]: 2.51 µM (active)

COc1cc(Nc2ncc3c(n2)-c2ccc(Cl)cc2C(c2c(F)cccc2OC)=NC3)ccc1C(=O)O [ALISERTIB]
Ki [3]: > 1 µM (inactive) | Ki [35]: 1 µM (active) | Ki (Activin receptor type-1): > 3.98 µM (inactive) | Ki [36]: 0.316 µM (active) | Ki [37]: 0.398 µM (active) | Ki [15]: 0.631 µM (active) | Ki [38]: > 1 µM (inactive) | Ki [39]: 0.316 µM (active)
